Laboratory results as given in ChEMBL document CHEMBL4616721, “Nitrogen-Walk Approach to Explore Bioisosteric Replacements in a Series of Potent A2B Adenosine Receptor Antagonists” (J Med Chem, 2020).

Columns and labels:
[1] = biological target: T1, Adenosine receptor A3 (Homo sapiens) (UniProt P0DMS8); test: Displacement [3H]NECA from adenosine A3 receptor in human HeLa cell membranes at 1 uM incubated for 180 mins by scintillation counting method relative to control
T1 sequence (whole entry): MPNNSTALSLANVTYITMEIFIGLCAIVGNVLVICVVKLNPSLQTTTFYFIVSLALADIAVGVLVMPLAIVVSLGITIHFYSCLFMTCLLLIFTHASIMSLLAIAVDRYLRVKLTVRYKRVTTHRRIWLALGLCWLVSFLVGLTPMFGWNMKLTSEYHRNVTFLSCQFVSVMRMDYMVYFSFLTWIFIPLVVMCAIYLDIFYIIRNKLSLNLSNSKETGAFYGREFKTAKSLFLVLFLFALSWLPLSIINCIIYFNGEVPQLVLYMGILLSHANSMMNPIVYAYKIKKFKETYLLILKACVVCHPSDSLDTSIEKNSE

[2] = biological target: Adenosine receptor A2a (Homo sapiens, UniProt P29274); test: Displacement [3H]ZM241385 from adenosine A2A receptor in human HeLa cell membranes at 1 uM incubated for 30 mins by scintillation counting method relative to control
Sequence of Adenosine receptor A2a (P29274 whole entry): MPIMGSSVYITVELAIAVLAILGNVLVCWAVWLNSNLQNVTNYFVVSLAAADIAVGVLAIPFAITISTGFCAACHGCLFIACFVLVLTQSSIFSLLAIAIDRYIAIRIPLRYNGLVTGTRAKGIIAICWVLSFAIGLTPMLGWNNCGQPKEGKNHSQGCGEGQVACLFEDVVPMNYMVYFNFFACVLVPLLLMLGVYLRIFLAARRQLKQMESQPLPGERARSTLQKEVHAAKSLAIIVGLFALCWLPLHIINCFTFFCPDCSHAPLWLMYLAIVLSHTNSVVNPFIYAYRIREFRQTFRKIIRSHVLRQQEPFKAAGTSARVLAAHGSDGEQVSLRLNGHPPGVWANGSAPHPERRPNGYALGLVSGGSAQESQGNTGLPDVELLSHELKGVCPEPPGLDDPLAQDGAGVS

[3] = biological target: T2, Adenosine receptor A1 (Homo sapiens) (UniProt P30542); test: Displacement [3H]DPCPX from human adenosine A1 receptor expressed in CHO cell membranes at 1 uM incubated for 60 mins by scintillation counting method relative to control
T2 sequence (whole entry): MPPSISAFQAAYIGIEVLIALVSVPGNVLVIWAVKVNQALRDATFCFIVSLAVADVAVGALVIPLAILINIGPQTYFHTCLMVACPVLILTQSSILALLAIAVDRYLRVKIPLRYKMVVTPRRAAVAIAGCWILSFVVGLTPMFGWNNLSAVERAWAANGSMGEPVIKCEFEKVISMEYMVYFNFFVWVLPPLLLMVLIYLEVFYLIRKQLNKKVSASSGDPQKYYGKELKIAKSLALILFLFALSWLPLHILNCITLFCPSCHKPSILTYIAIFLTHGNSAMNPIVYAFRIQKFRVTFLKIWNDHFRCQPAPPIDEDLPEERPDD

[4] = biological target: T3, Adenosine receptor A2b (Homo sapiens, UniProt P29275); test: Displacement [3H]DPCPX from human adenosine A2B receptor expressed in HEK293 cell membranes incubated for 60 mins by scintillation counting method
T3 sequence (P29275 whole entry): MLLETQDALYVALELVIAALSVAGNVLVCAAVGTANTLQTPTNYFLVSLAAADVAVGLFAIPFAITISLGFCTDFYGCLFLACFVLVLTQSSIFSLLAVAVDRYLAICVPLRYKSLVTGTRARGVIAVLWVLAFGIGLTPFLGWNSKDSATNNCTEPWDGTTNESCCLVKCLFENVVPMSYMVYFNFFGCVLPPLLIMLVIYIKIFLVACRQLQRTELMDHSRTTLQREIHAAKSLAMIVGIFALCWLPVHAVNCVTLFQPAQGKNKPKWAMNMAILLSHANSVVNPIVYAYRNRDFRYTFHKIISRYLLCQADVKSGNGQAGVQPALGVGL

SMILES	inhibition [1] [%]	inhibition [2] [%]	inhibition [3] [%]	Ki [4] [nM]
CC1=C(C(=O)OC(C)C)Cn2c(nc3ccccc32)N1	13	4	31	
CCOC(=O)C1=C(C)Nc2nc3ccccc3n2C1	9	11	34	
CC1=C(C(=O)OC(C)C)C(c2ccc[nH]2)n2c(nc3ccccc32)N1 (racemic)	1	19	38	31.3
CC1=C(C(=O)OC(C)C)C(c2cc[nH]n2)n2c(nc3ccccc32)N1 (racemic)	2	7	1	1100
CCOC(=O)C1=C(C)Nc2nc3ccccc3n2C1c1cc[nH]n1 (racemic)	1	11	8	707
CCOC(=O)C1=C(C)Nc2nc3ccccc3n2C1c1ccc[nH]1 (racemic)	9	2	45	49.6
CC1=C(C(=O)OC(C)C)C(c2cnsc2)n2c(nc3ccccc32)N1 (racemic)	14	11	9	278
CCOC(=O)C1=C(C)Nc2nc3ccccc3n2C1c1cc[nH]c1 (racemic)	1	7	26	449
CCOC(=O)C1=C(C)Nc2nc3ccccc3n2C1c1ccon1 (racemic)	3	1	2	789
CC1=C(C(=O)OC(C)C)C(c2ccon2)n2c(nc3ccccc32)N1 (racemic)	4	2	1	721
CC1=C(C(=O)OC(C)C)C(c2cnoc2)n2c(nc3ccccc32)N1 (racemic)	5	2	1	29.6
CC1=C(C(=O)OC(C)C)C(c2cc[nH]c2)n2c(nc3ccccc32)N1 (racemic)	2	1	19	517
CC1=C(C(=O)OC(C)C)C(C2CCCC2)n2c(nc3ccccc32)N1 (racemic)	23	2	14	
CC1=C(C(=O)OC(C)C)C(c2c[nH]cn2)n2c(nc3ccccc32)N1 (racemic)	8	4	5	
CC1=C(C(=O)OC(C)C)C(c2ccc(C)o2)n2c(nc3ccccc32)N1 (racemic)	1	3	14	
CC1=C(C(=O)OC(C)C)C(c2ccccc2)n2c(nc3ccccc32)N1 (racemic)	9	3	9	
CC1=C(C(=O)OC(C)C)C(c2cscn2)n2c(nc3ccccc32)N1 (racemic)	18	3	1	
CC1=C(C(=O)OC(C)C)C(c2ncc[nH]2)n2c(nc3ccccc32)N1 (racemic)	2	4	2	
CCOC(=O)C1=C(C)Nc2nc3ccccc3n2C1C1CCCC1 (racemic)	17	10	11	
CCOC(=O)C1=C(C)Nc2nc3ccccc3n2C1c1c[nH]cn1 (racemic)	3	16	7	
CCOC(=O)C1=C(C)Nc2nc3ccccc3n2C1c1ccc(C)o1 (racemic)	3	1	14	
CCOC(=O)C1=C(C)Nc2nc3ccccc3n2C1c1ccccc1 (racemic)	15	9	12	
CCOC(=O)C1=C(C)Nc2nc3ccccc3n2C1c1cnsc1 (racemic)	14	11	20	
CCOC(=O)C1=C(C)Nc2nc3ccccc3n2C1c1cscn1 (racemic)	2	1	1	
